Measurements from patent US20220356174A1, “PYRIDIN-2-ONE COMPOUNDS USEFUL AS SMARCA2 ANTAGONISTS” (Epizyme, Inc., priority 2018, published 2022).
Read-outs that look alike come from different tables or passages of the source.

What was measured:
[1] = molecular target: FL-SMARCA4 (Homo sapiens, UniProt P51532); experiment: SMARCA4 ATPase activity assay (ADP-Glo, chicken mononucleosome substrate)
[2] = molecular target: T1, FL-SMARCA2 (full-length human SMARCA2 isoform 1) (Homo sapiens, UniProt P51531); experiment: SMARCA2 ATPase activity assay (ADP-Glo, chicken mononucleosome substrate); type: biochemical; conditions: ATPase assay, enzyme 5 nM, ATP 250 uM, chicken mononucleosome 10 nM, 30 min preincubation
T1 construct: FLAG tag (YKDDDDK) (C); made in house; host or cells: Sf21 insect cells (baculovirus, pFastBacI)
T1 sequence (P51531 with tags, fused parts or gaps): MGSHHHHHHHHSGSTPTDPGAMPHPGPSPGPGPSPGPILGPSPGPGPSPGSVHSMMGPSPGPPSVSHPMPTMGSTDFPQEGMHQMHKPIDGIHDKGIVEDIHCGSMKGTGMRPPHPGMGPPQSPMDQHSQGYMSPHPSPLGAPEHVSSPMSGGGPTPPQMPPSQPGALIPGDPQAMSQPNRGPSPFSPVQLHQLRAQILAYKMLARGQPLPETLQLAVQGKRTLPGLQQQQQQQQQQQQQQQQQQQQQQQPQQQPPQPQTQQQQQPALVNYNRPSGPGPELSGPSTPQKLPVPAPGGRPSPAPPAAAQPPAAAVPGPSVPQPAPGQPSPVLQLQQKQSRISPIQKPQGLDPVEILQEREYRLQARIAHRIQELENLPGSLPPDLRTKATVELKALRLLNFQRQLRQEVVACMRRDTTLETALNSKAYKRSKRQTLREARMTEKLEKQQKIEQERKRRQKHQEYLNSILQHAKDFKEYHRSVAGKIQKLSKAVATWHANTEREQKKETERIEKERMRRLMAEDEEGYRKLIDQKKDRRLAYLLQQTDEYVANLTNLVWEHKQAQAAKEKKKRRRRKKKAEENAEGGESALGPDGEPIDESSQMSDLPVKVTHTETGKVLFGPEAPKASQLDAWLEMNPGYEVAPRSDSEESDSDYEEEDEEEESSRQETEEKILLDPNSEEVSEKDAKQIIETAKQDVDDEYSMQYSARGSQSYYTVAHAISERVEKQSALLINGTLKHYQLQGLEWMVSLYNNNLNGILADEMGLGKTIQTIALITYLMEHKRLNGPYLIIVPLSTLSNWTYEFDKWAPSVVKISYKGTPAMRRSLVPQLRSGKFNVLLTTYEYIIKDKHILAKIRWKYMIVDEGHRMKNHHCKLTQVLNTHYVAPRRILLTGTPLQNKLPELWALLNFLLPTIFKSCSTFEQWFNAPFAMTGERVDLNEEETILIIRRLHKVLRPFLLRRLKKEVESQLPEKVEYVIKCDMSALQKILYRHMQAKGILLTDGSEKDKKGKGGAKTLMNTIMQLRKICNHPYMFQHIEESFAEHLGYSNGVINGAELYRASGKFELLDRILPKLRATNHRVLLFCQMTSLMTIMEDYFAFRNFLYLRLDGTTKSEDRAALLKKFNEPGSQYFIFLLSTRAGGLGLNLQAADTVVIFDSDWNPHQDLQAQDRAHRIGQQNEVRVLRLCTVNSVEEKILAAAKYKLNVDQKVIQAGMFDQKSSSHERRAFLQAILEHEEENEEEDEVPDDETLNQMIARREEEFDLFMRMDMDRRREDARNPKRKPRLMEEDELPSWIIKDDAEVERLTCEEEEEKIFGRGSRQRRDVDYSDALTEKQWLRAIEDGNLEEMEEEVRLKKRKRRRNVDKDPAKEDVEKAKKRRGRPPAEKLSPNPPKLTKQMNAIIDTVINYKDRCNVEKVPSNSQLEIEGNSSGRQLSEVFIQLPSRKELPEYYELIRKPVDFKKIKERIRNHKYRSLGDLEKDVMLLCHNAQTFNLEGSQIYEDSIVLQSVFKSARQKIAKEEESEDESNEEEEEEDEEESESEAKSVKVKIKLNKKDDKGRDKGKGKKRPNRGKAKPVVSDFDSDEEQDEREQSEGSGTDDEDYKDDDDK

[3] = system: H358 cells; experiment: High-throughput proliferation (HTP) assay for H358 cells (CellTiter-Glo, 7 days); type: cell-based; conditions: Homo sapiens, NCI-H358, 168 h, read-out: H358 SMARCA2 IC50
Outline: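 Cells were plated at 1,000 cells/well in RPMI 1640 + 10% HI-FBS + 1% pen/strep on pre-dispensed compound and incubated 7 days at 37 °C, 5% CO2. Viability was read as ATP luminescence with CellTiter-Glo after 30 min at RT. DMSO served as 0% and 10 µM doxorubicin as 100% inhibition for EC50/IC50.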

[4] = system: A549 cells; experiment: High-throughput proliferation (HTP) assay for A549 cells (CellTiter-Glo, 7 days); type: cell-based; conditions: Homo sapiens, 168 h, read-out: A549 SMARCA2 IC50
Outline: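 Seven-day growth of A549 (62.5 cells/well, F12K with 10% HI-FBS, 37° C.) with compound, read by CellTiter-Glo ATP luminescence. Percent inhibition scaled between DMSO wells and 10 μM Doxorubicin wells, then fitted for EC50 and IC50.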

[5] = Table 3d.1, read-out: FL-SMARCA2 IC>50
[6] = FL-SMARCA4 IC>50, Table 3c.2, ATPase assay, enzyme 5 nM, ATP 250 uM, chicken mononucleosome 10 nM, 30 min preincubation

Chain of FL-SMARCA4 (P51532 whole entry, canonical isoform): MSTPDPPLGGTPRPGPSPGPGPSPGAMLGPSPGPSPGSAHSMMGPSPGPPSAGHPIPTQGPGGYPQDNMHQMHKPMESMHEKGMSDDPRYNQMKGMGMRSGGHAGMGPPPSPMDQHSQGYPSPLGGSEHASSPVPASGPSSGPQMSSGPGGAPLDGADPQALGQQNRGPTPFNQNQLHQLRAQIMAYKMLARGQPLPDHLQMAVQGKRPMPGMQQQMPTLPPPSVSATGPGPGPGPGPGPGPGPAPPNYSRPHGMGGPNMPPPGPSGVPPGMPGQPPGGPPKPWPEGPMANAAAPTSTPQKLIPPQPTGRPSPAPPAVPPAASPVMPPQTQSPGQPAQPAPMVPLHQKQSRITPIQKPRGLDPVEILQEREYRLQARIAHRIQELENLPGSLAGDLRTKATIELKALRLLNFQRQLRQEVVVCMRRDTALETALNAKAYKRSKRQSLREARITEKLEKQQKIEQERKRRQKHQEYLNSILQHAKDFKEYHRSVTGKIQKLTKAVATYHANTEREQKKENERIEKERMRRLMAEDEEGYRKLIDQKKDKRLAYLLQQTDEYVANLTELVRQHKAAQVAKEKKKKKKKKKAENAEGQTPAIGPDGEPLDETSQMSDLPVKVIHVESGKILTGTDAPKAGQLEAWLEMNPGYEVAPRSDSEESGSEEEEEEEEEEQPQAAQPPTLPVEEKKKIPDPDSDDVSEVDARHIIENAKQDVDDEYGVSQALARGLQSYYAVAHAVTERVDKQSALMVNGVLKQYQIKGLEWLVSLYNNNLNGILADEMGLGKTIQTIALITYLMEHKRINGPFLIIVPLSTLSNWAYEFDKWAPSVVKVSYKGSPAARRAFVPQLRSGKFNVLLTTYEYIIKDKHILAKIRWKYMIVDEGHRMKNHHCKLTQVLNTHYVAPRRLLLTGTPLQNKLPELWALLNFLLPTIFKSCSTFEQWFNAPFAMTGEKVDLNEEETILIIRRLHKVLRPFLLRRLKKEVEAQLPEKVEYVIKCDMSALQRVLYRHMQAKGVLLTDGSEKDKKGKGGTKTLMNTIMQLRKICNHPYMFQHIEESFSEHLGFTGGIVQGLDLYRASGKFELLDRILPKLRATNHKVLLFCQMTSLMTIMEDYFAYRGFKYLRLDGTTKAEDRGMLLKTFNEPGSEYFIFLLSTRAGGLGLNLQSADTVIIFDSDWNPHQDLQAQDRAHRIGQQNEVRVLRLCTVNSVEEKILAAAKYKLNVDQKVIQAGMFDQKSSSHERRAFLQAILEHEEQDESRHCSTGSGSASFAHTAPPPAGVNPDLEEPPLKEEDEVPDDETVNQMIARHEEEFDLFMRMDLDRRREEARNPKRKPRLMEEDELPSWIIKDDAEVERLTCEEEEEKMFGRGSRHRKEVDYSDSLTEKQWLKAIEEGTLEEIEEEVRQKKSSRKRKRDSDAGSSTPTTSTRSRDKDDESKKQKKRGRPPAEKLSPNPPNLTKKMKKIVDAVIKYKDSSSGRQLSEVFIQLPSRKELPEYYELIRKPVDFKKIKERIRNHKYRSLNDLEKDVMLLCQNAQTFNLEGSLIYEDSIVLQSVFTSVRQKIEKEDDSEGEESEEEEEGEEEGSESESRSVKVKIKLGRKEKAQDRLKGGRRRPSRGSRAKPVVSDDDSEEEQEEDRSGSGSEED

Compound | IC50 ([1]; FL-SMARCA4 IC50) [µM] | IC50 [2, 5] [µM] | IC50 [3] [µM] | IC50 [4] [µM] | IC50 [1, 6] [µM] | IC50 ([2]; Table 3c.1) [µM]
NCCOCC#Cc1cc(C(=O)Nc2cc(F)c(=O)n(CC(F)F)c2)sc1Cl [Compound 111d] | 5.1 | 1.7 | > 10 | > 10 | – | –
O=C(Nc1cc(F)c(=O)n(CC(F)F)c1)c1cc(-c2ccco2)c(Cl)s1 [Compound 112d] | 2.14 | 0.345 | > 10 | 9.96 | – | –
O=C(Nc1cc(F)c(=O)n(CC(F)F)c1)c1cc(C#Cc2c[nH]cn2)c(Cl)s1 [Compound 113c] | – | – | > 10 | 4.03 | 0.111 | 0.0345
CN1CC(C#Cc2cc(C(=O)Nc3cc(F)c(=O)n(CC(F)F)c3)sc2Cl)CC1=O (stereo not drawn) [Compound 113d] | 2.88 | 0.967 | > 10 | > 10 | – | –
O=C(Nc1cc(F)c(=O)n(CC(F)F)c1)c1cc(C#CC2COCCO2)c(Cl)s1 (stereo not drawn) [Compound 114d] | 0.372 | 0.112 | > 10 | 2.73 | – | –
O=C(Nc1cc(F)c(=O)n(CC(F)F)c1)c1cc(C#Cc2ccc3nccn3c2)c(Cl)s1 [Compound 115d] | 0.0993 | 0.0358 | > 10 | 2.08 | – | –
O=C1CC(C#Cc2cc(C(=O)Nc3cc(F)c(=O)n(CC(F)F)c3)sc2Cl)CN1 (stereo not drawn) [Compound 116c] | – | – | > 10 | 3.79 | 0.547 | 0.206
O=C(Nc1cc(F)c(=O)n(CC(F)F)c1)c1cc(C#CCn2ccnc2)c(Cl)s1 [Compound 116d] | 0.673 | 0.252 | > 10 | 8.92 | – | –
N#Cc1nc(C#Cc2cc(C(=O)Nc3cc(F)c(=O)n(CC(F)F)c3)sc2Cl)cs1 [Compound 117c] | – | – | 1.49 | 1.82 | 0.00699 | 0.00522
N#Cc1cc(C(=O)Nc2cc([N+](=O)[O-])c(=O)n(CC(F)F)c2)sc1C(F)(F)F [Compound 117d] | > 50 | 22.4 | 2.27 | 1.96 | – | –
CN1CC(C#Cc2cc(C(=O)Nc3cc(F)c(=O)n(CC(F)F)c3)sc2Cl)CCC1=O (stereo not drawn) [Compound 118d] | 0.544 | 0.245 | > 10 | 7.18 | – | –
O=C(Nc1cc(F)c(=O)n(CC(F)F)c1)c1cc(C#CC2CCn3cnnc3C2)c(Cl)s1 (stereo not drawn) [Compound 119d] | 2.22 | 0.961 | > 10 | > 10 | – | –
NC(=O)Cn1cc(C#Cc2cc(C(=O)Nc3cc(F)c(=O)n(CC(F)F)c3)sc2Cl)cn1 [Compound 120c] | – | – | > 10 | > 10 | 0.239 | 0.0909
O=C(Nc1cc(F)c(=O)n(CC(F)F)c1)c1cc(C#C[C@H]2CCC[C@@H](O)C2)c(Cl)s1 [Compound 120d] | 0.201 | 0.0701 | > 10 | 2.12 | – | –
CNC(=O)Cn1cc(C#Cc2cc(C(=O)Nc3cc(F)c(=O)n(CC(F)F)c3)sc2Cl)cn1 [Compound 121c] | – | – | > 10 | > 10 | 0.384 | 0.191
CC1(C)CC(C#Cc2cc(C(=O)Nc3cc(F)c(=O)n(CC(F)F)c3)sc2Cl)CC(C)(C)N1 [Compound 121d] | 17.3 | 16.8 | 7.38 | 5.03 | – | –
O=C(Nc1cc(F)c(=O)n(CC(F)F)c1)c1cc(C#Cc2cnn(CCO)c2)c(Cl)s1 [Compound 122c] | – | – | > 10 | 4.6 | 0.13 | 0.052
O=C(Nc1cc(F)c(=O)n(CC(F)F)c1)c1cc(C#Cc2ccc3ccnn3c2)c(Cl)s1 [Compound 122d] | 0.835 | 0.253 | > 10 | 8.44 | – | –
CN(C)CCn1cc(C#Cc2cc(C(=O)Nc3cc(F)c(=O)n(CC(F)F)c3)sc2Cl)cn1 [Compound 123c] | – | – | > 10 | 3.98 | 1.07 | 0.471
O=C(Nc1cc(F)c(=O)n(CC(F)F)c1)c1cc(C#CCn2cccn2)c(Cl)s1 [Compound 123d] | 1.58 | 0.52 | > 10 | > 10 | – | –
Nc1cc(C#Cc2cc(C(=O)Nc3cc(F)c(=O)n(CC(F)F)c3)sc2Cl)ccn1 [Compound 124c] | – | – | 7.23 | 1.07 | 0.0177 | 0.0109
